The target in one assay is T1, 5-HT1A receptor (Rattus norvegicus, UniProt P19327).
T1 construct: The rat cerebral cortex was homogenized in 50 mM Tris hydrochloride buffer; from tissue; host or cells: rat cerebral cortex membranes
T1 sequence (P19327 1-422): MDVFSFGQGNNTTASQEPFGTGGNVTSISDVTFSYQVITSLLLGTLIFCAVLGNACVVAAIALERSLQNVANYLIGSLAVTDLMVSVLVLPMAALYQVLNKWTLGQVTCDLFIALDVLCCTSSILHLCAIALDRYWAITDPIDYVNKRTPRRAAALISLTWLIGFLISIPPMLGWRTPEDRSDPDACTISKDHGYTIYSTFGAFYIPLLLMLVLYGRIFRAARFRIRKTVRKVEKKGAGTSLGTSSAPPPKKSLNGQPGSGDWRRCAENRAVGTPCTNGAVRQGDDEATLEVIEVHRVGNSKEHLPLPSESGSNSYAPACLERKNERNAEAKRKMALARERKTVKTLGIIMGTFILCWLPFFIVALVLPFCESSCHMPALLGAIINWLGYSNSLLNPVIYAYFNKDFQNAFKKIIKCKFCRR
The assay is described as follows: Selectivity for receptors: 5-HT1A receptor, inhibition of [^3 H] 8-OH-DPAT binding to rat cerebral cortex membrane. The following applies: [^3 H] 8-OH-DPAT 1 nM, rat cerebral cortex membrane; symbol, no activity in 10 μM; read-out: 5-HT1A receptor antagonizing action (IC50). As for the experimental part:
(§1) The selectivity for receptors of the quinolinecarboxylic acid derivatives of the present invention was examined by the following method.
The affinity to serotonin 1A (5-HT1A) receptor was examined by the method described in […], J. R. et al., Biochem. Pharmacol., 12, 1943-1949 (1986).
The affinity to serotonin 1A (5-HT1A) was examined in terms of inhibition of [^3 H] 8-OH-DPAT (Daiichi Kagaku Yakuhin Co.) binding to rat cerebral cortex membrane. The rat cerebral cortex was homogenized in 50 mM Tris hydrochloride buffer (pH 7.4) followed by centrifugation at 48,000 G.
The pellet was washed once with Tris hydrochloride buffer. Then the pellet was suspended in 50 mM Tris hydrochloride buffer (supplemented with 0.01 mM pargyline and 0.1% ascorbic acid, pH 7.7) and provided for use as the membrane preparation. The membrane specimen was reacted with 1 nM [^3 H] 8-OH-DPAT at 37° C. for 15 minutes. After the reaction, the membrane was caught by a harvester. Non-specific binding was defined as that taken in the presence of 10 μM 5-HT.

The target in assay [1] is T2, serotonin 4 receptor (5-HT4) (Cavia porcellus, UniProt O70528).
T2 construct: from tissue; host or cells: longitudinal muscle strips of guinea pig ileum (Harley guinea pigs)
T2 sequence (O70528 whole entry): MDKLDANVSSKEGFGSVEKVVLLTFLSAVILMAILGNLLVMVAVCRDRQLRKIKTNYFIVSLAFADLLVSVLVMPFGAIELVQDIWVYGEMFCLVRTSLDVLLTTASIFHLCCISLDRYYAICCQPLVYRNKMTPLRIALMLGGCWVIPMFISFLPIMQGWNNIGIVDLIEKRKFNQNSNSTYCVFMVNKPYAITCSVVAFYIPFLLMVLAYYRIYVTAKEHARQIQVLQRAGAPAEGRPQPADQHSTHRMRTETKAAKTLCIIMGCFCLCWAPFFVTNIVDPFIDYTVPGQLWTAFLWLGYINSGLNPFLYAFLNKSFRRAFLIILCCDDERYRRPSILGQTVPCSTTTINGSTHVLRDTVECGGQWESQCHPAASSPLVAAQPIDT
The assay is described as follows: Stimulating activity on serotonin 4 receptor (twitch response in guinea pig ileum). The class given is cell-based. As for the experimental part:
Stimulating activity on serotonin 4 receptor
From Harley guinea pigs weighing 250 to 400 g, a section of ileum 10 to 20 cm proximal to the ileocecal junction was removed. Longitudinal muscle strips obtained from the ileum were used for this assay. The preparations were suspended in Krebs' solution at 32 to 34° C., bubbled continuously with 95% O2 and 5% CO2, and subjected to initial tension of about 0.8 g. Responses were recorded isometrically. Twitch responses were evoked by electrical stimulation (0.2 Hz, 1 msec pulse duration). The preparations were stimulated at supramaximal voltage for 2 to 3 hours, and were then allowed to equilibrate for about 1 hour at submaximal voltage. […] The preparations were left for at least 45 minutes before cumulative addition of each agonist.
The quinolinecarboxylic acid derivatives of the present invention were employed as sample compounds. For comparison, the following compounds were employed. These compounds were diluted by dissolving them in distilled water or in DMSO.
The data obtained was analyzed by RS1 (BBN Software Product Co.).

The target in a further assay is T3, 5-HT3 receptor (Rattus norvegicus, UniProt P35563).
T3 construct: The rat cerebral cortex was homogenized in 50 mM Tris hydrochloride buffer; from tissue; host or cells: rat cerebral cortex membranes
T3 sequence (P35563 24-483): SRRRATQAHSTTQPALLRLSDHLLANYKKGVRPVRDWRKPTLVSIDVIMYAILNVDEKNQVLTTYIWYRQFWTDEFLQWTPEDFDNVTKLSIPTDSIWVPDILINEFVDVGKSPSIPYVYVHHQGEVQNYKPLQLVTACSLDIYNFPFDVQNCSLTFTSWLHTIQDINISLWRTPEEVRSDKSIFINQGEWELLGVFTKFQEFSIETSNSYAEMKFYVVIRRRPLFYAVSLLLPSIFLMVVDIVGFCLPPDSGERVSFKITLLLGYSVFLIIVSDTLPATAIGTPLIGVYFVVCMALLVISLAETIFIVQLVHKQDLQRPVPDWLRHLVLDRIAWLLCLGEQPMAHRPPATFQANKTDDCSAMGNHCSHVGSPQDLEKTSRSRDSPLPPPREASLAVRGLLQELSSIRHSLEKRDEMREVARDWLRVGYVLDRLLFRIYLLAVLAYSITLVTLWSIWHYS
The assay can be described thus: Selectivity for receptors: 5-HT3 receptor, inhibition of [^3 H]GR65630 binding to rat cerebral cortex membrane. The note with it: [^3 H]GR65630 0.2 nM, read-out: 5-HT3 receptor antagonizing action (IC50). On the procedure:
as §1
The affinity for serotonin 3 receptor was examined by the method described in […], G. J. et al., Nature (London), 330, 746-748 (1987).
The affinity to serotonin 3 (5-HT3) was examined in terms of inhibition of [^3 H]GR65630 binding (Daiichi Kagaku Yakuhin Co.) binding to rat cerebral cortex membrane. The rat cerebral cortex was homogenized in 50 mM Tris hydrochloride buffer (pH 7.4) followed by centrifugation at 48,000 G. The precipitates were washed once with Tris hydrochloride buffer. Then the precipitates were suspended in 50 mM Tris hydrochloride buffer and provided for use as the membrane preparation. The membrane preparation was reacted with 0.2 nM [^3 H]GR65630 at 37° C. for 30 minutes. After the reaction, the membrane was caught by a harvester. Non-specific binding was defined as the binding taken in the presence of 1 μM zacopride.

A further assay addresses T4, Dopamine D2 receptor (Rattus norvegicus, UniProt P61169).
T4 construct: The rat striatum was homogenized in 50 mM Tris hydrochloride buffer; from tissue; host or cells: rat striatal membranes
The assay is described as follows: Selectivity for receptors: dopamine D2 receptor, inhibition of [^3 H] raclopride binding to rat striatal membrane. The note with it: [^3 H] raclopride 1 nM, symbol, no activity in 10 μM, read-out: Dopamine D2 receptor antagonizing action (IC50). On the procedure: as §1
The affinity to dopamine 2 (D2) receptor was examined according to the method described in MALMBERG, A. et al., Mol Pharmacol., 43, 749-754 (1993).
The affinity for D2 receptor was studied in terms of the inhibition of [^3 H] raclopride (Daiichi Kagaku Yakuhin Co.) binding to rat striatal membrane. The rat striatum was homogenized in 50 mM Tris hydrochloride buffer (pH 7.4) followed by centrifugation at 48,000 G. The pellet was washed once with Tris hydrochloride buffer. Then the pellet was suspended in 50 mM Tris hydrochloride buffer (containing 120 mM NaCl, 5 mM KCl, 2 mM CaCl2, 1 mM MgCl2, pH 7.4) and provided for use as the membrane preparation. The membrane preparation (0.5 mg protein/ml) was reacted with 1 nM [3H] raclopride at 25° C. for 60 minutes. After the reaction, the membrane was caught by a harvester. Non-specific binding was defined as that taken in the presence of 10 μM haloperidol.

Another assay addresses T5, 5-HT4 receptor (Cavia porcellus, UniProt O70528).
T5 construct: The longitudinal muscle strip from guinea pig was homogenized; from tissue; host or cells: membranes of guinea pig ileum longitudinal muscle strip
The assay can be described thus: Inhibition of 5-HT4 receptor-binding ([^3 H]GR113808 binding in guinea pig ileum). On the procedure: Effect on inhibition of 5-HT4 receptor-binding
The effect on inhibition of 5-HT4 receptor-binding of the quinolinecarboxylic acid derivatives of the present invention was examined according to the method described in GROSSMAN et al., Br. J. Pharmacol., 109, 618 (1993).
The longitudinal muscle strip from guinea pig was homogenized in 0.32M sucrose with a Teflon-glass homogenizer. After centrifugation at 900 G for 10 minutes, the upper fraction of lipids and precipitates was discarded and the supernatant was centrifuged at 100,000 G (48,000 rpm) for an hour. The pellet was resuspended in 50 mM HEPES buffer. After incubation at 37° C. for 30 minutes, the suspension was centrifuged at 48,000 rpm for 20 minutes. The pellet was suspended in HEPES buffer supplemented with 10^-6 M pargyline and 0.1% ascorbic acid. The suspension was used for the binding assay.
Non-specific binding was defined as that taken in the presence of 3×10^-5 M 5-HT. B/F separation was performed through GF/B filter treated with 0.1% polyethyleneimine, using a cell harvester. Washing was performed once.

The mark [2] stands for this setting: twitch response in guinea pig ileum, maximum contraction of sample compound = 100%, read-out: ED50 (concentration enhancing the twitch response by 50%).

Structures are written as SMILES. Counter-ions that a name gives are not always drawn. Like-named read-outs stand apart in the source and are kept apart here.

T5 sequence (O70528 whole entry): as the sequence (O70528 whole entry) above
T4 sequence (P61169 whole entry): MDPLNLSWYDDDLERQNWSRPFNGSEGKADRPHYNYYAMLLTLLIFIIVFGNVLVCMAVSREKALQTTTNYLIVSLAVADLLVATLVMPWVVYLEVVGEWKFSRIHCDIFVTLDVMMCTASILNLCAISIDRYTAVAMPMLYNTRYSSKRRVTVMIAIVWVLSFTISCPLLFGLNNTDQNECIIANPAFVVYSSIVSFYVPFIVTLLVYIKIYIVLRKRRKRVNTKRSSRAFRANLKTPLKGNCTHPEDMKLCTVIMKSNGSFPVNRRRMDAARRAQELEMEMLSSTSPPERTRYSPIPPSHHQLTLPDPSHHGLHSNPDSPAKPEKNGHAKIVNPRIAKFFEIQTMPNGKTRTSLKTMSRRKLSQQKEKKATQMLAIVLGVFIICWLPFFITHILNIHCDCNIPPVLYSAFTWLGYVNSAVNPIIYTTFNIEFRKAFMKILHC

Regarding `CC(C)n1c(=O)c(C(=O)NC2CC3CCC(C2)N3CCCO)cc2ccccc21` (stereo not drawn) [Compound 5, Endo-N-(8-(3-hydroxypropyl)-8-azabicyclo[3.2.1]oct-3-yl)-1-isopropyl-2-oxo-1,2-dihydro-3-quinolinecarboxamide], the IC50 was greater than 10000 nM at 5-HT1A receptor, 977 nM at 5-HT3 receptor, greater than 10000 nM on Dopamine D2 receptor and 42.2 ± 6.29 nM at 5-HT4 receptor. In assay [1], this compound displayed an EC50 of 32 nM. For the compound `COCCN1[C@@H]2CC[C@H]1C[C@@H](NC(=O)c1cc3ccccc3n(C(C)C)c1=O)C2` [Compound 10, endo-N-(8-(2-methoxyethyl)-8-azabicyclo[3.2.1]oct-3-yl)-1-isopropyl-2-oxo-1,2-dihydro-3-quinolinecarboxamide hydrochloride], the IC50 at 5-HT1A receptor was greater than 10000 nM; on 5-HT3 receptor, 811 nM; on Dopamine D2 receptor, greater than 10000 nM; at 5-HT4 receptor, 78.5 ± 14.6 nM. Besides, the EC50 in assay [1] was 15 nM.

`CC(C)n1c(=O)c(C(=O)O[C@H]2C[C@H]3CC[C@@H](C2)N3CC2CCCCO2)cc2ccccc21` (stereo partly drawn) [Compound 48, Endo-8-(tetrahydropyran-2-methyl)-8-azabicyclo[3.2.1]oct-3-yl 1-isopropyl-2-oxo-1,2-dihydro-3-quinolinecarboxylate hydrochloride]: the EC50 in assay [1] amounted to 55.9 nM.

`CC(C)n1c(=O)c(C(=O)O[C@H]2C[C@H]3CC[C@@H](C2)N3CCOc2ccccc2)cc2ccccc21` [Compound 49, Endo-8-(2-phenoxyethyl)-8-azabicyclo[3.2.1]oct-3-yl 1-isopropyl-2-oxo-1,2-dihydro-3-quinolinecarboxylate hydrochloride] returned an EC50 in assay [1] of 39 nM. Still for that read-out and setting: the same measure for `CCOC(=O)CCCN1[C@@H]2CC[C@H]1C[C@@H](OC(=O)c1cc3ccccc3n(C(C)C)c1=O)C2` [Compound 51, Endo-8-(3-(ethoxycarbonyl)propyl)-8-azabicyclo[3.2.1]oct-3-yl 1-isopropyl-2-oxo-1,2-dihydro-3-quinolinecarboxylate hydrochloride]: 23 nM; for `CC(=O)CN1[C@@H]2CC[C@H]1C[C@@H](OC(=O)c1cc3ccccc3n(C(C)C)c1=O)C2` [Compound 52, Endo-8-(2-oxopropyl)-8-azabicyclo[3.2.1]oct-3-yl 1-isopropyl-2-oxo-1,2-dihydro-3-quinolinecarboxylate hydrochloride]: 24.6 nM; for `CC(=O)CCCN1[C@@H]2CC[C@H]1C[C@@H](OC(=O)c1cc3ccccc3n(C(C)C)c1=O)C2` [Compound 53, Endo-8-(4-oxopentyl)-8-azabicyclo[3.2.1]oct-3-yl 1-isopropyl-2-oxo-1,2-dihydro-3-quinolinecarboxylate hydrochloride]: 26.4 nM. The same measure, in the same setting: next, `CC(C)n1c(=O)c(C(=O)O[C@H]2C[C@H]3CC[C@@H](C2)N3CCC#N)cc2ccccc21` [Compound 55, Endo-8-(2-cyanoethyl)-8-azabicyclo[3.2.1]oct-3-yl 1-isopropyl-2-oxo-1,2-dihydro-3-quinolinecarboxylate]: 27.3 nM.

In assay [1], `CC(C)n1c(=O)c(C(=O)O[C@H]2C[C@H]3CC[C@@H](C2)N3CC(N)=O)cc2ccccc21` [Compound 56, Endo-8-carbamoylmethyl-8-azabicyclo[3.2.1]oct-3-yl 1-isopropyl-2-oxo-1,2-dihydro-3-quinolinecarboxylate] showed an EC50 of 31.4 nM. For `COc1ccc(N2[C@@H]3CC[C@H]2C[C@@H](OC(=O)c2cc4ccccc4n(C(C)C)c2=O)C3)cc1` [Compound 57, endo-8-(4-methoxyphenyl)-8-azabicyclo[3.2.1]oct-3-yl 1-isopropyl-2-oxo-1,2-dihydro-3-quinolinecarboxylate, reference compound], the EC50 in assay [1] (setting [2]) was greater than 3000 nM. Same read-out and setting: next, `CC(C)n1c(=O)c(C(=O)O[C@H]2C[C@H]3CC[C@@H](C2)N3c2nccs2)cc2ccccc21` [Compound 58, endo-8-(2-thiazolyl)-8-azabicyclo[3.2.1]oct-3-yl 1-isopropyl-2-oxo-1,2-dihydro-3-quinolinecarboxylate hydrochloride, reference compound]: 1140 nM. Consider `COCCOCCN1[C@@H]2CC[C@H]1C[C@@H](OC(=O)c1cc3ccccc3n(C(C)C)c1=O)C2` [Compound 59, Endo-8-(2-(2-methoxyethoxy)ethyl)-8-azabicyclo[3.2.1]oct-3-yl 1-isopropyl-2-oxo-1,2-dihydro-3-quinolinecarboxylate hydrochloride], for which the EC50 in assay [1] is 73.7 nM.

The values above are taken from patent US5753673A, “Quinolinecarboxylic acid derivatives” (Taisho Pharmaceutical Co., Ltd., priority 1994, dated 1998).
